Biological target: T1, recombinant human SAE enzyme (Homo sapiens, UniProt Q9UBT2)
T1 sequence (Q9UBT2 1-640): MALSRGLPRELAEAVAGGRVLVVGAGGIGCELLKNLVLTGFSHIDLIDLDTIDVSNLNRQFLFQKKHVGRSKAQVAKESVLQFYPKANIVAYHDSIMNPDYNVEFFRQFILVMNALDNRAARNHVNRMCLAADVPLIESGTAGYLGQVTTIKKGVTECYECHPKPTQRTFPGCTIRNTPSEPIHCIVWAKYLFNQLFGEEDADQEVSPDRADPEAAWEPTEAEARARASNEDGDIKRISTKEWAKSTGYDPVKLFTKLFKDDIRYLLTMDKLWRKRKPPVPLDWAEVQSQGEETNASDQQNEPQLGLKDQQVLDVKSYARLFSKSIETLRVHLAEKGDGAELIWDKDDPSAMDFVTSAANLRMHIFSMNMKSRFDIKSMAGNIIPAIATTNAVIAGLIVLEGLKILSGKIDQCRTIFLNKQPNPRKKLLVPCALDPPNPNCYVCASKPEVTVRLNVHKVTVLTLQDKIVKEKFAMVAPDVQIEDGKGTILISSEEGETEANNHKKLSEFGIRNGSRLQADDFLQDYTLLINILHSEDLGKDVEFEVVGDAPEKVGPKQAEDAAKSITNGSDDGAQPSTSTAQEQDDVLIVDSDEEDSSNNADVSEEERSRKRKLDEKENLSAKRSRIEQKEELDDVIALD
T1 sequence (Q9UBE0 1-346 partner): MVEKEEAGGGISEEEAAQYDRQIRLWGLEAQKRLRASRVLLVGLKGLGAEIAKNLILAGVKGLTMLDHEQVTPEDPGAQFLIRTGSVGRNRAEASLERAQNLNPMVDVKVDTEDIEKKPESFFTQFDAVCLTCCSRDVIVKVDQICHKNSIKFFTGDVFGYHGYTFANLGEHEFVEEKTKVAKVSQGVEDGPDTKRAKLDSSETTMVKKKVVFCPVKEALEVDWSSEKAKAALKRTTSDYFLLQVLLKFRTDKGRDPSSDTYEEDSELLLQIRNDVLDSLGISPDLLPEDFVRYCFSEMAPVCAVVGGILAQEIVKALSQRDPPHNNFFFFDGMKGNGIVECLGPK
Experiment: SAE HTRF Enzyme Assay
Type: biochemical
Conditions: for IC50: class symbols A-C; for inhibition at 0.111 µM: read-out: Percent Inhibition
Procedure: The SAE enzymatic reaction totals 50 μl and contains 50 mM HEPES Hemisodium (pH 7.5), 0.05% BSA, 5 mM MgCl2, 0.5 μM ATP, 250 μM GSH, 0.01 μM Ubc9-GST, 0.125 μM Sumo-Flag and 0.11 nM recombinant human SAE enzyme. The enzymatic reaction mixture with and without inhibitor, Is incubated at 24° C. for 105 min in a 384-well plate before termination with […] of Stop/Detection buffer (0.1M HEPES Hemisodium pH 7.5, 0.05% Tween20, 20 mM EDTA, 410 mM KF, 0.53 nM Europium-Cryptate labeled monoclonal anti-Flag M2 Antibody (CisBio International) and 8.125 μg/ml PHYCOLINK goat anti-GST allophycocyanin (XL-APC) antibody (Prozyme)). After incubation for 2 hours at 24° C., quantification of FRET is performed on the Pherostar™ (BMG Labtech). Percentage inhibition values at a single concentration or enzyme inhibition (IC50) values are determined from those curves. One skilled in the art will appreciate that the values generated either as percentage inhibition at a single concentration or IC50 values are subject to experimental variation.

[1] = compound concentration 0.111 μM

Compound | IC50 [nM] | inhibition at 0.111 µM [1] [%] | Percent Inhibition (compound concentration 0.111 μM, 0.111 µM) [%]
Cc1cc(Cn2ccc(C(=O)c3cncnc3N[C@@H]3C[C@H](COS(N)(=O)=O)[C@@H](O)[C@H]3O)n2)no1 [Compound I-169, [(1R,2R,3S,4R)-2,3-dihydroxy-4-{[5-({1-[(5-methylisoxazol-3-yl)methyl]-1H-pyrazol-3-yl}carbonyl)pyrimidin-4-yl]amino}cyclopentyl]methyl sulfamate] | < 10 | 97 | 
CCOCCn1ccc(C(=O)c2cncnc2N[C@@H]2C[C@H](COS(N)(=O)=O)[C@@H](O)[C@H]2O)n1 [Compound I-28, {(1R,2R,3S,4R)-4-[(5-{[1-(2-ethoxyethyl)-1H-pyrazol-3-yl]carbonyl}pyrimidin-4-yl)amino]-2,3-dihydroxycyclopentyl}methyl sulfamate] | 10 to 100 | 78 | 
CC(c1cccc(Br)c1)n1ccc(C(=O)c2cncnc2N[C@@H]2C[C@H](COS(N)(=O)=O)[C@@H](O)C2)n1 (single isomer, unassigned) [Compound I-358, [(1R,2S,4R)-4-{[5-({1-[(1S)-1-(3-bromophenyl)ethyl]-1H-pyrazol-3-yl}carbonyl)pyrimidin-4-yl]amino}-2-hydroxycyclopentyl]methyl sulfamate or [(1R,2S,4R)-4-{[5-({1-[(1R)-1-(3-bromophenyl)ethyl]-1H-pyrazol-3-yl}carbonyl)pyrimidin-4-yl]amino}-2-hydroxycyclopentyl]methyl sulfamate] | < 10 |  | 95
NS(=O)(=O)OC[C@H]1C[C@@H](Nc2ncncc2C(=O)c2ccn(Cc3ccc(F)c(F)c3)n2)[C@@H](O)[C@@H]1O [Compound I-190, {(1R,2R,3R,4R)-4-[(5-{[1-(3,4-difluorobenzyl)-1H-pyrazol-3-yl]carbonyl}pyrimidin-4-yl)amino]-2,3-dihydroxycyclopentyl}methyl sulfamate] | < 10 | 98 | 
Cc1ccc(Cn2ccc(C(=O)c3cncnc3N[C@@H]3C[C@H](COS(N)(=O)=O)[C@@H](O)[C@H]3O)n2)cc1F [Compound I-198, {(1R,2R,3S,4R)-4-[(5-{[1-(3-fluoro-4-methylbenzyl)-1H-pyrazol-3-yl]carbonyl}pyrimidin-4-yl)amino]-2,3-dihydroxycyclopentyl}methyl sulfamate] | < 10 | > 99 | 
CCC(c1cccc(Br)c1)n1ccc(C(=O)c2cncnc2N[C@@H]2C[C@H](COS(N)(=O)=O)[C@@H](O)[C@@H]2F)c1 (single isomer, unassigned) [Compound I-175, [(1R,2R,3R,4R)-4-{[5-({1-[(1S)-1-(3-bromophenyl)propyl]-1H-pyrrol-3-yl}carbonyl)pyrimidin-4-yl]amino}-3-fluoro-2-hydroxycyclopentyl]methyl sulfamate or [(1R,2R,3R,4R)-4-{[5-({1-[(1R)-1-(3-bromophenyl)propyl]-1H-pyrrol-3-yl}carbonyl)pyrimidin-4-yl]amino}-3-fluoro-2-hydroxycyclopentyl]methyl sulfamate] | < 10 | 99 | 
NS(=O)(=O)OC[C@H]1C[C@@H](Nc2ncncc2C(=O)c2ccn(Cc3cccc(OC(F)(F)F)c3)c2)[C@@H](F)[C@@H]1O [Compound I-131, [(1R,2R,3R,4R)-3-Fluoro-2-hydroxy-4-{[5-({1-[3-(trifluoromethoxy)benzyl]-1H-pyrrol-3-yl}carbonyl)pyrimidin-4-yl]amino}cyclopentyl]methyl sulfamate] | < 10 | 96 | 
NS(=O)(=O)OC[C@H]1C[C@@H](Nc2ncncc2C(=O)c2ccn(Cc3ccc4ccccc4c3)n2)[C@H](O)[C@@H]1O [Compound I-103, {(1R,2R,3S,4R)-2,3-dihydroxy-4-[(5-{[1-(2-naphthylmethyl)-1H-pyrazol-3-yl]carbonyl}pyrimidin-4-yl)amino]cyclopentyl}methyl sulfamate] | < 10 | 97 | 
NS(=O)(=O)OC[C@H]1C[C@@H](Nc2ncncc2C(=O)c2ccn(Cc3cc(C(F)(F)F)ccc3C(F)(F)F)n2)[C@H](O)[C@@H]1O [Compound I-267, [(1R,2R,3S,4R)-4-{[5-({1-[2,5-bis(trifluoromethyl)benzyl]-1H-pyrazol-3-yl}carbonyl)pyrimidin-4-yl]amino}-2,3-dihydroxycyclopentyl]methyl sulfamate] | < 10 | 97 | 
NS(=O)(=O)OC[C@H]1C[C@@H](Nc2ncncc2C(=O)c2ccn(CC3=CCOCC3)c2)[C@@H](F)[C@@H]1O [Compound I-5, {(1R,2R,3R,4R)-4-[(5-{[1-(3,6-dihydro-2H-pyran-4-ylmethyl)-1H-pyrrol-3-yl]carbonyl}pyrimidin-4-yl)amino]-3-fluoro-2-hydroxycyclopentyl}methyl sulfamate] | 10 to 100 | 89 | 
Cc1cc(C(=O)c2cncnc2N[C@@H]2C[C@H](COS(N)(=O)=O)[C@@H](O)C2)nn1Cc1cccc(Cl)n1 [Compound I-99, [(1R,2S,4R)-4-{[5-({1-[(6-chloropyridin-2-yl)methyl]-5-methyl-1H-pyrazol-3-yl}carbonyl)pyrimidin-4-yl]amino}-2-hydroxycyclopentyl]methyl sulfamate] | < 10 | > 99 | 
CC#CCCn1ccc(C(=O)c2cncnc2N[C@@H]2C[C@H](COS(N)(=O)=O)[C@@H](O)C2)n1 [Compound I-115] | 100 to 1000 | 33 | 
NS(=O)(=O)OC[C@H]1C[C@@H](Nc2ncncc2C(=O)c2ccn(CC3CC3)n2)[C@H](O)[C@@H]1O [Compound I-30, {(1R,2R,3S,4R)-4-[(5-{[1-(cyclopropylmethyl)-1H-pyrazol-3-yl]carbonyl}pyrimidin-4-yl)amino]-2,3-dihydroxycyclopentyl}methyl sulfamate] | 10 to 100 | 66 | 
NS(=O)(=O)OC[C@H]1C[C@@H](Nc2ncncc2C(=O)c2ccn(Cc3cc(Cl)ccn3)n2)[C@H](O)[C@@H]1O [Compound I-70, [(1R,2R,3S,4R)-4-{[5-({1-[(4-chloropyridin-2-yl)methyl]-1H-pyrazol-3-yl}carbonyl)pyrimidin-4-yI]amino}-2,3-dihydroxycyclopentyl]methyl sulfamate] | < 10 | 99 | 
NS(=O)(=O)OC[C@H]1C[C@@H](Nc2ncncc2C(=O)c2ccn(Cc3ccc4ccccc4c3)n2)C[C@@H]1O [Compound I-48, {(1R,2S,4R)-2-hydroxy-4-[(5-{[1-(2-naphthylmethyl)-1H-pyrazol-3-yl]carbonyl}pyrimidin-4-yl)amino]cyclopentyl}methyl sulfamate] | < 10 | 96 | 
NS(=O)(=O)OC[C@H]1C[C@@H](Nc2ncncc2C(=O)c2ccn(Cc3ccc(Cl)c(SC(F)(F)F)c3)n2)[C@H](O)[C@@H]1O [Compound I-126, [(1R,2R,3S,4R)-4-({5-[(1-{4-chloro-3-[(trifluoromethyl)sulfanyl]benzyl}-1H-pyrazol-3-yl)carbonyl]pyrimidin-4-yl}amino)-2,3-dihydroxycyclopentyl]methyl sultamate] | < 10 | > 99 | 
NS(=O)(=O)OC[C@H]1C[C@@H](Nc2ncncc2C(=O)c2ccn(Cc3ccc(C(F)(F)F)s3)c2)[C@@H](F)[C@@H]1O [Compound I-257, [(1R,2R,3R,4R)-3-fluoro-2-hydroxy-4-({5-[(1-{[5-(trifluoromethyl)-2-thienyl]methyl}-1H-pyrrol-3-yl)carbonyl]pyrimidin-4-yl}amino)cyclopentyl]methyl sulfamate] | < 10 | 98 | 
